Measurements from US10167262B2, “Herbicidal substituted 3-arylpyrazoles” (FMC CORPORATION, priority 2014, dated 2019).

Tests used:
Assay in all cases: Test E pre-/postemergence greenhouse test, plant response rating 0-100
Assay type in all cases: in vivo
[1] = test system: giant foxtail (Setaria faberii); settings: Preemergence, scale 0 to 100
[2] = test system: Italian ryegrass (Lolium multiflorum); settings: scale 0 to 100; for Plant response rating, Ryegrass, Italian: Postemergence; for Ryegrass, Italian plant response rating: Preemergence
Outline: (§1)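 Pre: seeded silt loam sprayed; post: 1–4-leaf plants (2–18 cm) in peat-based mix sprayed. Formulation: non-phytotoxic solvent + surfactant. Greenhouse 14–21 d; visual rating vs controls, 0 = no effect, 100 = complete control.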

corn (Zea mays) = settings: scale 0 to 100; for Plant response rating, Corn: Postemergence; for Corn plant response rating: Preemergence
Outline: as §1

soybean (Glycine max) = settings: scale 0 to 100; for Plant response rating, Soybean: Postemergence; for Soybean plant response rating: Preemergence
Outline: as §1

[3] = test system: ragweed (common ragweed, Ambrosia elatior); settings: Preemergence, scale 0 to 100
Outline: as §1

[4] = test system: smartweed (ladysthumb smartweed, Polygonum persicaria); settings: Postemergence, scale 0 to 100
[5] = test system: surinam grass (Brachiaria decumbens); settings: Preemergence, scale 0 to 100
Outline: as §1

[6] = test system: field bindweed (Convolvulus arvensis); settings: scale 0 to 100; for Plant response rating, Field Bindweed: Postemergence; for Field Bindweed plant response rating: Preemergence
Outline: as §1

[7] = test system: smartweed (ladysthumb smartweed, Polygonum persicaria); settings: scale 0 to 100; for Smartweed plant response rating: Preemergence
[8] = test system: morningglory (Ipomoea coccinea); settings: Preemergence, scale 0 to 100
[9] = test system: green foxtail (Setaria viridis); settings: Preemergence, scale 0 to 100
[10] = test system: yellow nutsedge (Cyperus esculentus); settings: Preemergence, scale 0 to 100
[11] = test system: johnsongrass (Sorghum halepense); settings: Preemergence, scale 0 to 100
[12] = test system: large (Lg) crabgrass (Digitaria sanguinalis); settings: Preemergence, scale 0 to 100
[13] = test system: goosegrass (Eleusine indica); settings: Preemergence, scale 0 to 100

O=C(c1ccccc1)c1cn(S(=O)(=O)C(F)(F)F)nc1-c1cc(Cl)cc(Cl)c1 [Compound 2]
Foxtail, Giant plant response rating ([1]; 31 g ai/ha): 0
Foxtail, Giant plant response rating ([1]; 62 g ai/ha): 0
Foxtail, Giant plant response rating ([1]; 125 g ai/ha): 0
Foxtail, Giant plant response rating ([1]; 250 g ai/ha): 0
Foxtail, Giant plant response rating ([1]; 500 g ai/ha): 0
Plant response rating, Ryegrass, Italian ([2]; 31 g ai/ha): 0
Plant response rating, Ryegrass, Italian ([2]; 62 g ai/ha): 0
Plant response rating, Ryegrass, Italian ([2]; 125 g ai/ha): 0
Plant response rating, Ryegrass, Italian ([2]; 250 g ai/ha): 0
Plant response rating, Ryegrass, Italian ([2]; 500 g ai/ha): 0
Ryegrass, Italian plant response rating ([2]; 31 g ai/ha): 0
Ryegrass, Italian plant response rating ([2]; 62 g ai/ha): 0
Ryegrass, Italian plant response rating ([2]; 125 g ai/ha): 0
Ryegrass, Italian plant response rating ([2]; 250 g ai/ha): 0
Ryegrass, Italian plant response rating ([2]; 500 g ai/ha): 0
Plant response rating, Corn (corn (Zea mays); 31 g ai/ha): 0
Plant response rating, Corn (corn (Zea mays); 62 g ai/ha): 0
Plant response rating, Corn (corn (Zea mays); 125 g ai/ha): 0
Plant response rating, Corn (corn (Zea mays); 250 g ai/ha): 0
Plant response rating, Corn (corn (Zea mays); 500 g ai/ha): 0
Corn plant response rating (corn (Zea mays); 31 g ai/ha): 0
Corn plant response rating (corn (Zea mays); 62 g ai/ha): 0
Corn plant response rating (corn (Zea mays); 125 g ai/ha): 0
Corn plant response rating (corn (Zea mays); 250 g ai/ha): 0
Corn plant response rating (corn (Zea mays); 500 g ai/ha): 0
Plant response rating, Soybean (soybean (Glycine max); 31 g ai/ha): 0
Plant response rating, Soybean (soybean (Glycine max); 62 g ai/ha): 0
Plant response rating, Soybean (soybean (Glycine max); 125 g ai/ha): 0
Plant response rating, Soybean (soybean (Glycine max); 250 g ai/ha): 0
Plant response rating, Soybean (soybean (Glycine max); 500 g ai/ha): 0
Soybean plant response rating (soybean (Glycine max); 125 g ai/ha): 0
Soybean plant response rating (soybean (Glycine max); 250 g ai/ha): 0
Soybean plant response rating (soybean (Glycine max); 500 g ai/ha): 0
Ragweed plant response rating ([3]; 31 g ai/ha): 0
Ragweed plant response rating ([3]; 125 g ai/ha): 0
Ragweed plant response rating ([3]; 250 g ai/ha): 100
Ragweed plant response rating ([3]; 500 g ai/ha): 100
Plant response rating, Smartweed ([4]; 31 g ai/ha): 0
Plant response rating, Smartweed ([4]; 62 g ai/ha): 65
Plant response rating, Smartweed ([4]; 125 g ai/ha): 75
Plant response rating, Smartweed ([4]; 250 g ai/ha): 95
Surinam Grass plant response rating ([5]; 31 g ai/ha): 0
Surinam Grass plant response rating ([5]; 62 g ai/ha): 0
Surinam Grass plant response rating ([5]; 125 g ai/ha): 0
Surinam Grass plant response rating ([5]; 250 g ai/ha): 0
Surinam Grass plant response rating ([5]; 500 g ai/ha): 0
Plant response rating, Field Bindweed ([6]; 31 g ai/ha): 0
Plant response rating, Field Bindweed ([6]; 62 g ai/ha): 0
Plant response rating, Field Bindweed ([6]; 125 g ai/ha): 0
Plant response rating, Field Bindweed ([6]; 250 g ai/ha): 0
Plant response rating, Field Bindweed ([6]; 500 g ai/ha): 0
Field Bindweed plant response rating ([6]; 31 g ai/ha): 0
Field Bindweed plant response rating ([6]; 62 g ai/ha): 0
Field Bindweed plant response rating ([6]; 125 g ai/ha): 0
Field Bindweed plant response rating ([6]; 250 g ai/ha): 0
Field Bindweed plant response rating ([6]; 500 g ai/ha): 0
Smartweed plant response rating ([7]; 31 g ai/ha): 0
Smartweed plant response rating ([7]; 125 g ai/ha): 0
Smartweed plant response rating ([7]; 250 g ai/ha): 0
Morningglory plant response rating ([8]; 31 g ai/ha): 0
Morningglory plant response rating ([8]; 62 g ai/ha): 0
Morningglory plant response rating ([8]; 125 g ai/ha): 0
Morningglory plant response rating ([8]; 250 g ai/ha): 0
Morningglory plant response rating ([8]; 500 g ai/ha): 0
Foxtail, Green plant response rating ([9]; 31 g ai/ha): 0
Foxtail, Green plant response rating ([9]; 62 g ai/ha): 0
Foxtail, Green plant response rating ([9]; 125 g ai/ha): 0
Foxtail, Green plant response rating ([9]; 250 g ai/ha): 0
Foxtail, Green plant response rating ([9]; 500 g ai/ha): 0
Nutsedge, Yellow plant response rating ([10]; 31 g ai/ha): 0
Nutsedge, Yellow plant response rating ([10]; 125 g ai/ha): 50
Nutsedge, Yellow plant response rating ([10]; 250 g ai/ha): 40
Nutsedge, Yellow plant response rating ([10]; 500 g ai/ha): 35
Johnsongrass plant response rating ([11]; 31 g ai/ha): 0
Johnsongrass plant response rating ([11]; 62 g ai/ha): 0
Johnsongrass plant response rating ([11]; 125 g ai/ha): 0
Johnsongrass plant response rating ([11]; 250 g ai/ha): 0
Johnsongrass plant response rating ([11]; 500 g ai/ha): 0
Crabgrass, Large plant response rating ([12]; 31 g ai/ha): 0
Crabgrass, Large plant response rating ([12]; 62 g ai/ha): 0
Crabgrass, Large plant response rating ([12]; 125 g ai/ha): 0
Crabgrass, Large plant response rating ([12]; 250 g ai/ha): 0
Crabgrass, Large plant response rating ([12]; 500 g ai/ha): 0
Goosegrass plant response rating ([13]; 31 g ai/ha): 0
Goosegrass plant response rating ([13]; 62 g ai/ha): 0
Goosegrass plant response rating ([13]; 125 g ai/ha): 0
Goosegrass plant response rating ([13]; 250 g ai/ha): 0
Goosegrass plant response rating ([13]; 500 g ai/ha): 0

O=C(c1ccccc1)c1cn(S(=O)(=O)CC(F)(F)F)nc1-c1cc(Cl)cc(Cl)c1 [Compound 3]
Foxtail, Giant plant response rating ([1]; 31 g ai/ha): 0
Foxtail, Giant plant response rating ([1]; 62 g ai/ha): 0
Foxtail, Giant plant response rating ([1]; 125 g ai/ha): 0
Foxtail, Giant plant response rating ([1]; 250 g ai/ha): 15
Foxtail, Giant plant response rating ([1]; 500 g ai/ha): 35
Plant response rating, Ryegrass, Italian ([2]; 31 g ai/ha): 0
Plant response rating, Ryegrass, Italian ([2]; 62 g ai/ha): 0
Plant response rating, Ryegrass, Italian ([2]; 125 g ai/ha): 0
Plant response rating, Ryegrass, Italian ([2]; 250 g ai/ha): 0
Plant response rating, Ryegrass, Italian ([2]; 500 g ai/ha): 0
Ryegrass, Italian plant response rating ([2]; 31 g ai/ha): 0
Ryegrass, Italian plant response rating ([2]; 62 g ai/ha): 0
Ryegrass, Italian plant response rating ([2]; 125 g ai/ha): 0
Ryegrass, Italian plant response rating ([2]; 250 g ai/ha): 0
Ryegrass, Italian plant response rating ([2]; 500 g ai/ha): 0
Plant response rating, Corn (corn (Zea mays); 31 g ai/ha): 0
Plant response rating, Corn (corn (Zea mays); 62 g ai/ha): 0
Plant response rating, Corn (corn (Zea mays); 125 g ai/ha): 0
Plant response rating, Corn (corn (Zea mays); 250 g ai/ha): 0
Plant response rating, Corn (corn (Zea mays); 500 g ai/ha): 0
Corn plant response rating (corn (Zea mays); 31 g ai/ha): 0
Corn plant response rating (corn (Zea mays); 62 g ai/ha): 0
Corn plant response rating (corn (Zea mays); 125 g ai/ha): 0
Corn plant response rating (corn (Zea mays); 250 g ai/ha): 0
Corn plant response rating (corn (Zea mays); 500 g ai/ha): 0
Plant response rating, Soybean (soybean (Glycine max); 31 g ai/ha): 0
Plant response rating, Soybean (soybean (Glycine max); 62 g ai/ha): 0
Plant response rating, Soybean (soybean (Glycine max); 125 g ai/ha): 0
Plant response rating, Soybean (soybean (Glycine max); 250 g ai/ha): 0
Plant response rating, Soybean (soybean (Glycine max); 500 g ai/ha): 0
Soybean plant response rating (soybean (Glycine max); 31 g ai/ha): 0
Soybean plant response rating (soybean (Glycine max); 62 g ai/ha): 0
Soybean plant response rating (soybean (Glycine max); 125 g ai/ha): 0
Soybean plant response rating (soybean (Glycine max); 500 g ai/ha): 0
Ragweed plant response rating ([3]; 31 g ai/ha): 0
Ragweed plant response rating ([3]; 62 g ai/ha): 0
Ragweed plant response rating ([3]; 125 g ai/ha): 0
Ragweed plant response rating ([3]; 250 g ai/ha): 100
Ragweed plant response rating ([3]; 500 g ai/ha): 95
Plant response rating, Smartweed ([4]; 250 g ai/ha): 65
Surinam Grass plant response rating ([5]; 31 g ai/ha): 0
Surinam Grass plant response rating ([5]; 62 g ai/ha): 0
Surinam Grass plant response rating ([5]; 125 g ai/ha): 0
Surinam Grass plant response rating ([5]; 250 g ai/ha): 0
Surinam Grass plant response rating ([5]; 500 g ai/ha): 0
Plant response rating, Field Bindweed ([6]; 31 g ai/ha): 0
Plant response rating, Field Bindweed ([6]; 62 g ai/ha): 0
Plant response rating, Field Bindweed ([6]; 125 g ai/ha): 0
Plant response rating, Field Bindweed ([6]; 250 g ai/ha): 0
Plant response rating, Field Bindweed ([6]; 500 g ai/ha): 0
Field Bindweed plant response rating ([6]; 31 g ai/ha): 0
Field Bindweed plant response rating ([6]; 62 g ai/ha): 0
Field Bindweed plant response rating ([6]; 125 g ai/ha): 0
Field Bindweed plant response rating ([6]; 250 g ai/ha): 0
Field Bindweed plant response rating ([6]; 500 g ai/ha): 65
Plant response rating, Smartweed ([7]; Postemergence, 500 g ai/ha): 90
Smartweed plant response rating ([7]; 31 g ai/ha): 0
Smartweed plant response rating ([7]; 62 g ai/ha): 0
Smartweed plant response rating ([7]; 125 g ai/ha): 0
Smartweed plant response rating ([7]; 250 g ai/ha): 0
Smartweed plant response rating ([7]; 500 g ai/ha): 0
Morningglory plant response rating ([8]; 31 g ai/ha): 0
Morningglory plant response rating ([8]; 62 g ai/ha): 0
Morningglory plant response rating ([8]; 125 g ai/ha): 0
Morningglory plant response rating ([8]; 250 g ai/ha): 0
Morningglory plant response rating ([8]; 500 g ai/ha): 0
Foxtail, Green plant response rating ([9]; 31 g ai/ha): 0
Foxtail, Green plant response rating ([9]; 62 g ai/ha): 0
Foxtail, Green plant response rating ([9]; 125 g ai/ha): 0
Foxtail, Green plant response rating ([9]; 250 g ai/ha): 0
Foxtail, Green plant response rating ([9]; 500 g ai/ha): 0
Nutsedge, Yellow plant response rating ([10]; 62 g ai/ha): 50
Nutsedge, Yellow plant response rating ([10]; 125 g ai/ha): 35
Nutsedge, Yellow plant response rating ([10]; 500 g ai/ha): 75
Johnsongrass plant response rating ([11]; 31 g ai/ha): 0
Johnsongrass plant response rating ([11]; 62 g ai/ha): 0
Johnsongrass plant response rating ([11]; 125 g ai/ha): 0
Johnsongrass plant response rating ([11]; 250 g ai/ha): 35
Johnsongrass plant response rating ([11]; 500 g ai/ha): 35
Crabgrass, Large plant response rating ([12]; 31 g ai/ha): 0
Crabgrass, Large plant response rating ([12]; 62 g ai/ha): 0
Crabgrass, Large plant response rating ([12]; 125 g ai/ha): 0
Crabgrass, Large plant response rating ([12]; 250 g ai/ha): 0
Crabgrass, Large plant response rating ([12]; 500 g ai/ha): 0
Goosegrass plant response rating ([13]; 31 g ai/ha): 0
Goosegrass plant response rating ([13]; 62 g ai/ha): 0
Goosegrass plant response rating ([13]; 125 g ai/ha): 0
Goosegrass plant response rating ([13]; 250 g ai/ha): 35
Goosegrass plant response rating ([13]; 500 g ai/ha): 35
